In ChEMBL document CHEMBL3259572, “Euodenine A: a small-molecule agonist of human TLR4” (J Med Chem, 2014):
Active and inactive are the calls of the source. The rule behind the calls is not given here.

Tests used:
Toll-like receptor 4 [1] = biological target: T1, Toll-like receptor 4 (Homo sapiens, UniProt O00206); assay: Agonist activity at human recombinant TLR4 expressed in HEK293 cells by SEAP reporter assay; type: cell-based
TLR2/TLR6 (Homo sapiens) = TLR2/TLR6 (Homo sapiens) (UniProt O60603+Q9Y2C9); assay: Agonist activity at human recombinant TLR2/6 expressed in HEK293 cells at 10 uM by SEAP reporter assay; type: cell-based
[2] = Cytotoxicity against human PBMC by WST-1 cell proliferation assay; type: cell-based; conditions: PBMC (peripheral blood mononuclear cells)
PBMC [3] = assay: Cytotoxicity against PHA-stimulated human PBMC at 20 uM by WST-1 cell proliferation assay; type: cell-based
Toll-like receptor 4 [4] = biological target: T1, Toll-like receptor 4; assay: Agonist activity at chimeric extracellular domain of human TLR4 fused with human intracellular domain expressed in HEK293 cells by NFkappaB reporter assay; type: cell-based
HEK293 = assay: Agonist activity at chimeric extracellular domain of human TLR4 fused with mouse intracellular domain expressed in HEK293 cells by NFkappaB reporter assay; type: cell-based
[5] = biological target: Toll-like receptor 5 (Homo sapiens) (UniProt O60602); assay: Agonist activity at human recombinant TLR5 expressed in HEK293 cells at 10 uM by SEAP reporter assay; type: cell-based
Sequence of Toll-like receptor 5 (Homo sapiens) (O60602 whole entry): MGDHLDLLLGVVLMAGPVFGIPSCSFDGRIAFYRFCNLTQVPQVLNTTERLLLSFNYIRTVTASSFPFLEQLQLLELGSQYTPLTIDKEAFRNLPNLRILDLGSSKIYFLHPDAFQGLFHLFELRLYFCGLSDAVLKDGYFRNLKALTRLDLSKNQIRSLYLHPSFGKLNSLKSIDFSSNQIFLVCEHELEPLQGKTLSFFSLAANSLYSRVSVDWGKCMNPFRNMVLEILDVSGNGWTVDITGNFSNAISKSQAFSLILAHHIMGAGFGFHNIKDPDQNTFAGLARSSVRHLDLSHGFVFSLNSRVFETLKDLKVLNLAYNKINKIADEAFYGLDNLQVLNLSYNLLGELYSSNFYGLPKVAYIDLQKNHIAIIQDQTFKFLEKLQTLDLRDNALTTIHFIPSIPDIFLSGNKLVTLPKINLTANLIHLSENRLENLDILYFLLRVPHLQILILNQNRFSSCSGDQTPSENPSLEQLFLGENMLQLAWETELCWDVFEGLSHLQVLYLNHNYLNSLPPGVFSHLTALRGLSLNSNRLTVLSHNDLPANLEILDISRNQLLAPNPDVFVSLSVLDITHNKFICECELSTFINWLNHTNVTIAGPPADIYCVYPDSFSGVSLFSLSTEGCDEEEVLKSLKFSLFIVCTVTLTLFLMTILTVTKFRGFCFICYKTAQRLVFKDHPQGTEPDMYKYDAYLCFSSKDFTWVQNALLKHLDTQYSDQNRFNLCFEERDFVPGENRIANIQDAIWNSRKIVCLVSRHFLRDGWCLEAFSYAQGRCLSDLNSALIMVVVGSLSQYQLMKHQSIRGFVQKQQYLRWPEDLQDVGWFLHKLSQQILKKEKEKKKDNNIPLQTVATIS

[6] = biological target: T2, Toll-like receptor 8 (Homo sapiens) (UniProt Q9NR97); assay: Agonist activity at human recombinant TLR8 expressed in HEK293 cells at 10 uM by SEAP reporter assay; type: cell-based
T2 sequence (whole entry): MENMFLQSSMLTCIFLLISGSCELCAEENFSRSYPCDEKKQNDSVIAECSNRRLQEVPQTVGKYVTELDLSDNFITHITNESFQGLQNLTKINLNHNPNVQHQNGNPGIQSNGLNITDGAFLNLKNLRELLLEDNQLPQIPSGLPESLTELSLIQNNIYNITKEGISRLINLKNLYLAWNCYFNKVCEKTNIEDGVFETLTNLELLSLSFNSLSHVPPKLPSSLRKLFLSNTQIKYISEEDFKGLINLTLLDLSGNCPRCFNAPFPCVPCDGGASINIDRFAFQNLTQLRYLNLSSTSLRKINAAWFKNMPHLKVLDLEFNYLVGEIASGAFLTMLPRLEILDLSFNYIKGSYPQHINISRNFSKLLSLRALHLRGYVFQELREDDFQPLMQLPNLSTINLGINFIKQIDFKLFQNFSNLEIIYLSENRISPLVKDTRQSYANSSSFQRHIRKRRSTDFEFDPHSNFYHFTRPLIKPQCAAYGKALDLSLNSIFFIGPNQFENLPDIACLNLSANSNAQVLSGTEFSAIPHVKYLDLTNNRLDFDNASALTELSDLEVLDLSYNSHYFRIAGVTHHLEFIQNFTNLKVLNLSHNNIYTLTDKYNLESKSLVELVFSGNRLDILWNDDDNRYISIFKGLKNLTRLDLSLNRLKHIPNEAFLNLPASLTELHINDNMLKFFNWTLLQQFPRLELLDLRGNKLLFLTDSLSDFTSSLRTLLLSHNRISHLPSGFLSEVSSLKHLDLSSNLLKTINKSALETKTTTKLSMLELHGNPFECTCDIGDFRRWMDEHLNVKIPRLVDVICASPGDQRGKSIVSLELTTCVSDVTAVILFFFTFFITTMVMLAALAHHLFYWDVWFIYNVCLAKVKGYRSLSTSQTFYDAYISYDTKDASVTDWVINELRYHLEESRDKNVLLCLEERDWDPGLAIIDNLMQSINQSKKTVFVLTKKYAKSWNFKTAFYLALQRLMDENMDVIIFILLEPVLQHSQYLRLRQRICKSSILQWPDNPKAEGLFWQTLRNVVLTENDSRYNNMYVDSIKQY

Toll-like receptor 4 [7] = biological target: T1, Toll-like receptor 4; assay: Agonist activity at human recombinant TLR4 expressed in HEK293 cells coexpressed with human MD2 assessed as TNFalpha response by NFkappaB reporter assay; type: cell-based
PBMC [8] = assay: Induction of IL-12p40 production in human PBMC at 10 uM by ELISA; type: functional, cell-based
PBMC [9] = assay: Induction of TNFalpha production in human PBMC at 10 uM by ELISA; type: functional, cell-based
PBMC [10] = assay: Induction of IL-8 production in human PBMC at 10 uM by ELISA; type: functional, cell-based
PBMC [11] = assay: Suppression of PHA-induced IL-5 release in human PBMC at 10 uM by ELISA; type: functional, cell-based
Toll-like receptor 4 [12] = biological target: T1, Toll-like receptor 4; assay: Intrinsic activity at human recombinant TLR4 expressed in HEK293 cells by SEAP reporter assay relative to LPS; type: cell-based
[13] = biological target: Toll-like receptor 2 (Homo sapiens) (UniProt O60603); assay: Agonist activity at human recombinant TLR2 expressed in HEK293 cells by SEAP reporter assay; type: cell-based
Sequence of Toll-like receptor 2 (Homo sapiens) (O60603 whole entry): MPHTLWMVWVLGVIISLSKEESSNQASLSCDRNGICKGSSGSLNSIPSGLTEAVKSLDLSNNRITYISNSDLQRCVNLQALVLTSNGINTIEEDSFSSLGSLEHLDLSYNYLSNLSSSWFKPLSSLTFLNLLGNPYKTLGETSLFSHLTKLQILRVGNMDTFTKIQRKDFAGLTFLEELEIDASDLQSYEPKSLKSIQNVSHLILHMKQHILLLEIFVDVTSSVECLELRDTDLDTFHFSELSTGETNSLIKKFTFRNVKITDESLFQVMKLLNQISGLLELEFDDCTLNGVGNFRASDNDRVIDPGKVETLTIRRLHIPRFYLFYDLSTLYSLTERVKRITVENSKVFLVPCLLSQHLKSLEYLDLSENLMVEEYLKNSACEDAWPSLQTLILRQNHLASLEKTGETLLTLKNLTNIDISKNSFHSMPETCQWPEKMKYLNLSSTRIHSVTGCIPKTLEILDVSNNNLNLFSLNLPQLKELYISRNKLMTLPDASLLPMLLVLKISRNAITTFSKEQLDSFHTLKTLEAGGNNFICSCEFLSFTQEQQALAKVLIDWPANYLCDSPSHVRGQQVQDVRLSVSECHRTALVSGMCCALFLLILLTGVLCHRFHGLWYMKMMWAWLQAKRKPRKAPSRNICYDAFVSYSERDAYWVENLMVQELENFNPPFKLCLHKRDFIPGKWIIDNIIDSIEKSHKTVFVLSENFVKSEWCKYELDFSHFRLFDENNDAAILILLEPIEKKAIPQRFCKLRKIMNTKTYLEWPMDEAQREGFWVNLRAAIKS

[14] = biological target: T3, Toll-like receptor 9 (Homo sapiens) (UniProt Q9NR96); assay: Agonist activity at human recombinant TLR9 expressed in HEK293 cells at 10 uM by SEAP reporter assay; type: cell-based
T3 sequence (whole entry): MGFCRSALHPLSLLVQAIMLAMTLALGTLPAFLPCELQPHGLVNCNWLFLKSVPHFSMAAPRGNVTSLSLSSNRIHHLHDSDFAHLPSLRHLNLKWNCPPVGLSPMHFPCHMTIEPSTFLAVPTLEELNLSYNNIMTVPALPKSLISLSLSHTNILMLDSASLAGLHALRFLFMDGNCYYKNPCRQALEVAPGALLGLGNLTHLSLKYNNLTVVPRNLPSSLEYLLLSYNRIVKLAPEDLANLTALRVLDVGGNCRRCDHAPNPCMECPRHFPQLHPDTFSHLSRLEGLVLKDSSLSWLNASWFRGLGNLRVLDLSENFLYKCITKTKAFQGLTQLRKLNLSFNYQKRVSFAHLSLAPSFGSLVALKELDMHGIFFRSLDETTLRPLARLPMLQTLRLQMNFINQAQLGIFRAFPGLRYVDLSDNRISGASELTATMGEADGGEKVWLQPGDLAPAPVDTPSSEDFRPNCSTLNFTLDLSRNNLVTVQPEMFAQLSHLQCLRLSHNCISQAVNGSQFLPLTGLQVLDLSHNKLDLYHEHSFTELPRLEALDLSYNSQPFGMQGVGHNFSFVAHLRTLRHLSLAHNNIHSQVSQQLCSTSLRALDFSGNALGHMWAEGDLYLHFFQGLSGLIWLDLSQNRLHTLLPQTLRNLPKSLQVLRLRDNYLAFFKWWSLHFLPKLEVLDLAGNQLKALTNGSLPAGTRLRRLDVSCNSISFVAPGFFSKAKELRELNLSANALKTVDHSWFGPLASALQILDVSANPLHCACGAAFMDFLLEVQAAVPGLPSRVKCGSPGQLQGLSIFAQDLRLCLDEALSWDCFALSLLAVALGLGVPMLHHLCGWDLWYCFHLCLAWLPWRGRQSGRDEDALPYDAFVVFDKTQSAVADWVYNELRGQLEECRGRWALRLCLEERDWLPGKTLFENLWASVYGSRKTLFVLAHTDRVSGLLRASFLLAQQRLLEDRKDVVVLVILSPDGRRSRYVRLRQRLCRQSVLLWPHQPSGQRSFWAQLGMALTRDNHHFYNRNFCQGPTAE

T1 sequence (O00206 whole entry): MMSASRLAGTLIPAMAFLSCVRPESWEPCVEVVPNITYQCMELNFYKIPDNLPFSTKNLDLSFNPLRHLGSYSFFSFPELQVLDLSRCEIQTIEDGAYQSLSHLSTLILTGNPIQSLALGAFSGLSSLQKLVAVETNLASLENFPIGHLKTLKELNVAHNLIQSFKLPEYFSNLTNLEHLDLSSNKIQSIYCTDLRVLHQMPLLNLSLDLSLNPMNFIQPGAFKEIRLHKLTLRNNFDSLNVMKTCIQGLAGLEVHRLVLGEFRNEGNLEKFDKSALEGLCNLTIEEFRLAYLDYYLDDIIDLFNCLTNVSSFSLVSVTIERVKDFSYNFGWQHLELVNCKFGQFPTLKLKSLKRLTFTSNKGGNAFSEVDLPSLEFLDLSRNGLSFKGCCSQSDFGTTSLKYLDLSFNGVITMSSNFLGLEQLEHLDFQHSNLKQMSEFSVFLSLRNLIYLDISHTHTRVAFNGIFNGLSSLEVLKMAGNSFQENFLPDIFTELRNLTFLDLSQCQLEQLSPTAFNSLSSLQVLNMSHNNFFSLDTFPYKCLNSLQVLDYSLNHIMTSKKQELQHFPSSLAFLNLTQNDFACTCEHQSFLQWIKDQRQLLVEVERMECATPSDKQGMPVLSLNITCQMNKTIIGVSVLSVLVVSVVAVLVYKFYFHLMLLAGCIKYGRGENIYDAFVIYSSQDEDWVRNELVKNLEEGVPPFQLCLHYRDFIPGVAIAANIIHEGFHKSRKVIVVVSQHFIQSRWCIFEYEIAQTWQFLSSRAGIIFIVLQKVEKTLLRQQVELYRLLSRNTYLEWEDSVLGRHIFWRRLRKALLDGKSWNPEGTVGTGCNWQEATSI

In the case of `COc1cc([C@@H]2[C@@H](C)[C@H]3[C@@H]2c2c(c4ccccc4[nH]c2=O)OC3(C)C)cc(OC)c1OC`, the EC50 (Toll-like receptor 4 [1]) is reported as 3.9 µM, the Activity (TLR2/TLR6 (Homo sapiens)) is reported as “inactive” and the CC50 [2] is reported as over 33 µM. The Activity (PBMC [3]) was “Non-toxic”, the Activity (Toll-like receptor 4 [4]) was “Active” and the Activity (HEK293) was “Active”. The Activity [5] was “inactive”, the Activity [6] was “inactive” and the Activity (Toll-like receptor 4 [7]) was “Active”. The Activity (PBMC [8]) was “Active”, the Activity (PBMC [9]) was “Active” and the Activity (PBMC [10]) was “Active”. The inhibition (PBMC [11]) was “Active”, the Intrinsic activity (Toll-like receptor 4 [12]) was 0.95 and the Activity [13] was “inactive”. For the same compound, the Activity [14] was “inactive”.
